Test results from patent US9878977B2, “N-((3,4,5-trimethoxystyryl)aryl)cinnamamide compounds as potential anticancer agents and process for the preparation thereof” (COUNCIL OF SCIENTIFIC & INDUSTRIAL RESEARCH, priority 2014, dated 2018).

Assays:
SK-OV-3 = conditions: Human ovarian cancer; data from NCI60 dose response (NSC 613729); cited from earlier work
Colo-205 = experiment: SRB anti-proliferative assay, Colo-205; assay type: cell-based, Human; conditions: COLO 205; Human colon cancer; concentration of drug causing 50% inhibition of cell growth; read-out: GI50 Colo-205
Procedure: (§1) The synthesized N-(3,4,5-trimethoxystyryl)aryl)cinnamamides were evaluated for their anti-proliferative activity in selected human cancer cell lines of breast cancer (MCF-7), prostate cancer (DU-145), lung cancer (Hop-62), cervical cancer (Hela), leukemia (K562), ovarian cancer (SK-OV-3), colon cancer (Colo-205), pancreatic (MAIPA-CA-2) by using sulforhodamine B (SRB) method (Vichai, V.; Kirtikara, K. Nat. Protoc. 2006, 1, 1112). […] CA-4 was used as the reference compound.

Hela = experiment: SRB anti-proliferative assay, Hela; assay type: cell-based, Human; conditions: Human cervical cancer, concentration of drug causing 50% inhibition of cell growth, read-out: GI50 Hela
Procedure: as §1

MCF-7 = experiment: SRB anti-proliferative assay, MCF-7; assay type: cell-based, Human; conditions: MCF7; Human breast cancer; concentration of drug causing 50% inhibition of cell growth; read-out: GI50 MCF-7
Procedure: as §1

DU-145 = experiment: SRB anti-proliferative assay, DU-145; assay type: cell-based, Human; conditions: DU-145; Human prostate cancer; concentration of drug causing 50% inhibition of cell growth; read-out: GI50 DU-145
Procedure: as §1

Hop-62 = conditions: Human lung cancer; data from NCI60 dose response (NSC 613729); cited from earlier work
K562 = conditions: Human leukemia; data from NCI60 dose response (NSC 613729); cited from earlier work

COc1ccc(/C=C\c2cc(OC)c(OC)c(OC)c2)cc1O [CA-4, combretastatin A4, reference compound]
GI50 (SK-OV-3): 31.6 µM | GI50 (Colo-205): 0.025 µM | GI50 (Hela): 0.008 µM | GI50 (MCF-7): 0.033 µM | GI50 (DU-145): 0.046 µM | GI50 (Hop-62): 0.15 µM | GI50 (K562): 0.031 µM
